In US20230107983A1, “COMPOUND ISOLATED FROM TORILIDIS FRUCTUS, AND ANTICANCER PHARMACEUTICAL COMPOSITION CONTAINING SAME AS ACTIVE INGREDIENT” (PHARMA-GENE CO., LTD., priority 2020, published 2023):

Experiments:
[1] = system: human lung cancer cells (A549); assay: Nude mouse xenograft model of human lung cancer cells, oral administration; assay type: in vivo; set-up: Tumor size increase (Vt—V0): unit not given here
Method: (§1) Anticancer activity against lung cancer according to the oral administration of Tr-9 was confirmed through a nude mouse xenograft model of human lung cancer cells (A549). Specific pathogen-free (SPF) nude mice of the BALB/C strain were used as the animal model. Animals were bred in the animal room of Daedeok Campus of Hannam University maintained at a temperature of 23±3° C., relative humidity of 55±15%, ventilation frequency of 10-20 times/hr, lighting time of 12 hours(lights on at 8 am and off at 8 pm) and illuminance of 150 to 300 Lux.
(§2) For cancer cell transplantation, all cells were collected and counted on the last day of culture, and the concentration of human lung cancer cell line A549 was adjusted to 5×10^6 cells/ml using PBS. The adjusted cell culture solution was injected subcutaneously into the auxiliary region between the right scapula and chest wall at 0.2 ml (1×10^6 cells/mouse) per mouse.
(§3) The Tr-9 was dissolved in sterile PBS and 1 mM Tr-9 200 µℓ was orally administered per mouse once a day, and all animals were weighed immediately before the start of drug (Tr-9) administration and 10 times in total from day 2 to day 23 after cancer cell transplantation (Table 1).
(§4) In Table 1 above, data values are the mean ± standard deviation. After measuring the body weight, the animals were killed using CO2 gas, and the tumor was separated and the size was measured in 3 directions using a vernier caliper for each animal. Then, the change in tumor size was expressed as a calculated value of (length × width × height)/2 (Table 2).
Tumor size increase is (Δt)= Vt—Vo, wherein Vt is the value of measuring the tumor size by date, and Vo is the value of measuring the initial tumor size.

[2] = Change in mouse weight, A549 xenograft, intraperitoneal administration; assay type: in vivo, nude mouse; set-up: Change in mouse weight: unit not given here; conditions: once a day
Method: The Tr-9 was dissolved in sterile PBS and 1 mM Tr-9 200 µℓ was intraperitoneally administered per mouse once a day, and all animals were weighed immediately before the start of drug (Tr-9) administration and 10 times in total from day 2 to day 23 after cancer cell transplantation (Table 4).
as §4, with “4” for “1”, “4).” for “2).”

[3] = system: human colorectal cancer cells (HCT116); assay: Nude mouse xenograft model of human colorectal cancer cells, intraperitoneal administration; assay type: in vivo
Method: Anticancer activity against colorectal cancer according to the intraperitoneal administration of Tr-9 was confirmed through a nude mouse xenograft model of human colorectal cancer cells (HCT116). In Example 5, Example 4 was repeated except for using colorectal cancer cells.
as §1, with “Specific” for “Anticancer activity against lung cancer according to the oral administration of Tr-9 was confirmed through a nude mouse xenograft model of human lung cancer cells (A549). Specific”
as §2, with “colorectal” for “lung”, “HCT116” for “A549”
The Tr-9 was dissolved in sterile PBS and 1 mM Tr-9 200 µℓ was intraperitoneally administered per mouse once a day, and all animals were weighed immediately before the start of drug (Tr-9) administration and 9 times in total from day 2 to day 21 after cancer cell transplantation (Table 7).
as §4, with “7” for “1”, “8).” for “2).”
Tumor size increase is (Δt)═ Vt—Vo, wherein Vt is the value of measuring the tumor size by date, and Vo is the value of measuring the initial tumor size.

[4] = Change in mouse weight, A549 xenograft, oral administration; assay type: in vivo, nude mouse; set-up: Change in mouse weight: unit not given here; conditions: once a day
Method: as §3, §4

[5] = intraperitoneal once a day, Day 21

C/C=C(/C)C(=O)O[C@@H]1C[C@H](C)[C@H]2CC(=O)C(C)=C2C[C@@H]1C(C)(C)OC(C)=O [Torilin, torilin, reference compound]
Tumor size increase (Vt—V0) ([1]; oral once a day, Day 0): 0.0±0.0 | Tumor size increase (Vt—V0) ([1]; oral once a day, Day 2): 11.4±11.7 | Inhibition rate (tumor size increase) ([1]; oral once a day, Day 2, vs control): 5.8% | Tumor size increase (Vt—V0) ([1]; oral once a day, Day 5): 18.1±9.4 | Inhibition rate (tumor size increase) ([1]; oral once a day, Day 5, vs control): 10.8% | Tumor size increase (Vt—V0) ([1]; oral once a day, Day 7): 28.6±3.0 | Inhibition rate (tumor size increase) ([1]; oral once a day, Day 7, vs control): 11.7% | Tumor size increase (Vt—V0) ([1]; oral once a day, Day 9): 42.0±9.8 | Inhibition rate (tumor size increase) ([1]; oral once a day, Day 9, vs control): 20.9% | Inhibition rate (tumor size increase) ([1]; oral once a day, Day 12, vs control): 27.0% | Tumor size increase (Vt—V0) ([1]; oral once a day, Day 14): 134.6±37.6 | Inhibition rate (tumor size increase) ([1]; oral once a day, Day 14, vs control): 26.0% | Tumor size increase (Vt—V0) ([1]; oral once a day, Day 16): 211.8±32.9 | Inhibition rate (tumor size increase) ([1]; oral once a day, Day 16, vs control): 27.0% | Tumor size increase (Vt—V0) ([1]; oral once a day, Day 19): 362.2±64.2 | Inhibition rate (tumor size increase) ([1]; oral once a day, Day 19, vs control): 31.5% | Tumor size increase (Vt—V0) ([1]; oral once a day, Day 21): 493.4±82.6 | Inhibition rate (tumor size increase) ([1]; oral once a day, Day 21, vs control): 33.0% | Tumor size increase (Vt—V0) ([1]; oral once a day, Day 23): 646.9±108.8 | Tumor weight at Day 23 ([1]; oral once a day, Day 23): 0.745 ± 0.196 g | Tumor weight reduction rate compared to control group ([1]; oral once a day, Day 23): 29.5% | Inhibition rate (tumor size increase) ([1]; oral once a day, Day 23, vs control): 34.1% | tumor size compared to the control group ([1]; oral, after day 19): statistically significantly smaller | Change in mouse weight ([2]; 0 Day after drug treatment): 100.0 ±0.0 | Change in mouse weight ([2]; 2 Days after drug treatment): 98.2 ±1.5 | Change in mouse weight ([2]; 5 Days after drug treatment): 98.2 ±1.4 | Change in mouse weight ([2]; 7 Days after drug treatment): 97.6 ±1.0 | Change in mouse weight ([2]; 9 Days after drug treatment): 102.7 ±2.7 | Change in mouse weight ([2]; 12 Days after drug treatment): 101.0 ±3.1 | Change in mouse weight ([2]; 14 Days after drug treatment): 101.2 ±2.6 | Change in mouse weight ([2]; 16 Days after drug treatment): 102.3 ±3.8 | Change in mouse weight ([2]; 19 Days after drug treatment): 103.4 ±5.2 | Change in mouse weight ([2]; 21 Days after drug treatment): 102.9 ±4.1 | Change in mouse weight ([2]; 23 Days after drug treatment): 105.0 ±4.6 | difference in body weight according to the administration of the drugs ([2]; day 2 to day 23): almost no difference in body weight | Tumor size increase (Vt−V0) ([3]; intraperitoneal once a day, Day 0, table title: Change in tumor size): 0.0±0.0 | Tumor size increase (Vt−V0) ([3]; intraperitoneal once a day, Day 2, table title: Change in tumor size): 54.7±16.2 | Inhibition rate (tumor size increase) ([3]; intraperitoneal once a day, Day 2, vs control): 17.4% | Tumor size increase (Vt−V0) ([3]; intraperitoneal once a day, Day 5, table title: Change in tumor size): 151.4±33.3 | Inhibition rate (tumor size increase) ([3]; intraperitoneal once a day, Day 5, vs control): 16.3% | Tumor size increase (Vt−V0) ([3]; intraperitoneal once a day, Day 7, table title: Change in tumor size): 362.7±59.4 | Inhibition rate (tumor size increase) ([3]; intraperitoneal once a day, Day 7, vs control): 18.9% | Tumor size increase (Vt−V0) ([3]; intraperitoneal once a day, Day 9, table title: Change in tumor size): 565.9±142.4 | Inhibition rate (tumor size increase) ([3]; intraperitoneal once a day, Day 9, vs control): 19.1% | Tumor size increase (Vt−V0) ([3]; intraperitoneal once a day, Day 11, table title: Change in tumor size): 816.9±248.1 | Inhibition rate (tumor size increase) ([3]; intraperitoneal once a day, Day 11, vs control): 20.6% | Tumor size increase (Vt−V0) ([3]; intraperitoneal once a day, Day 14, table title: Change in tumor size): 1086.2±458.4 | Inhibition rate (tumor size increase) ([3]; intraperitoneal once a day, Day 14, vs control): 21.2% | Tumor size increase (Vt−V0) ([3]; intraperitoneal once a day, Day 16, table title: Change in tumor size): 1319.9±614.0 | Inhibition rate (tumor size increase) ([3]; intraperitoneal once a day, Day 16, vs control): 26.5% | Tumor size increase (Vt−V0) ([3]; intraperitoneal once a day, Day 18, table title: Change in tumor size): 1555.6±640.5 | Inhibition rate (tumor size increase) ([3]; intraperitoneal once a day, Day 18, vs control): 24.0% | Tumor weight at Day 21 [3, 5]: 2.85 ± 0.834 g | Tumor weight reduction rate compared to control group [3, 5]: 25.9% | Tumor size increase (Vt−V0) ([3]; intraperitoneal once a day, Day 21, table title: Change in tumor size): 1973.3±821.1 | Inhibition rate (tumor size increase) ([3]; intraperitoneal once a day, Day 21, vs control): 25.2% | tumor size compared to the control group ([3]; intraperitoneal, after day 14): statistically significantly smaller | Change in mouse weight ([4]; 0 Day after drug treatment): 100.0 ±0.0 | Change in mouse weight ([4]; 2 Days after drug treatment): 100.0 ±3.0 | Change in mouse weight ([4]; 5 Days after drug treatment): 97.2 ±2.5 | Change in mouse weight ([4]; 7 Days after drug treatment): 99.5 ±3.5 | Change in mouse weight ([4]; 9 Days after drug treatment): 105.7 ±7.0 | Change in mouse weight ([4]; 12 Days after drug treatment): 101.0 ±6.2 | Change in mouse weight ([4]; 14 Days after drug treatment): 101.8 ±5.5 | Change in mouse weight ([4]; 16 Days after drug treatment): 103.9 ±5.8 | Change in mouse weight ([4]; 19 Days after drug treatment): 101.1 ±5.8 | Change in mouse weight ([4]; 21 Days after drug treatment): 102.9 ±6.0 | Change in mouse weight ([4]; 23 Days after drug treatment): 105.0 ±7.1 | difference in body weight according to the administration of the drugs ([4]; day 2 to day 23): almost no difference in body weight
